# Measured values: PubChem BioAssay (NCI)
#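 Tested at 5 concentrations; 48 h exposure; 96-well plates; endpoints linearly interpolated, else capped at highest concentration. GI50: concentration for 50% inhibition of growth. Definition used: TGI = concentration required for complete inhibition of growth.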
# Legend:
# Assay in all cases: inhibition of tumour cell growth, NCI panel, 48 h
# DU-145 prostate = system: DU-145 prostate
# SW-620 colon = system: SW-620 colon
# A549 NSCLC = system: A549 NSCLC
# M14 melanoma = system: M14 melanoma
# TK-10 renal = system: TK-10 renal
# UACC-257 melanoma = system: UACC-257 melanoma
# SK-OV-3 ovarian = system: SK-OV-3 ovarian
# IGROV1 ovarian = system: IGROV1 ovarian
# SF-295 CNS = system: SF-295 CNS
# UO-31 renal = system: UO-31 renal
SMILES,GI50 (DU-145 prostate) [µM],TGI (DU-145 prostate) [µM],GI50 (SW-620 colon) [µM],TGI (SW-620 colon) [µM],GI50 (A549 NSCLC) [µM],TGI (A549 NSCLC) [µM],GI50 (M14 melanoma) [µM],TGI (M14 melanoma) [µM],GI50 (TK-10 renal) [µM],TGI (TK-10 renal) [µM],GI50 (UACC-257 melanoma) [µM],TGI (UACC-257 melanoma) [µM],GI50 (SK-OV-3 ovarian) [µM],TGI (SK-OV-3 ovarian) [µM],GI50 (IGROV1 ovarian) [µM],TGI (IGROV1 ovarian) [µM],GI50 (SF-295 CNS) [µM],TGI (SF-295 CNS) [µM],GI50 (UO-31 renal) [µM],TGI (UO-31 renal) [µM]
COc1ccc(/C=C/C(=O)c2c(O)ccc3c(C)c(C(=O)O)oc23)cc1,> 100,> 100,56.3,> 100,91.9,> 100,> 100,> 100,> 100,> 100,84.9,> 100,> 100,> 100,> 100,> 100,35.1,> 100,> 100,> 100
CCN1CCC(CC(=O)Nc2n[nH]c3nnc(-c4cccc(F)c4F)cc23)CC1,> 25,> 25,> 25,> 25,> 25,> 25,> 25,> 25,> 25,> 25,> 25,> 25,> 25,> 25,> 25,> 25,18,> 25,> 25,> 25
CC(=O)OCC12CN(C#N)C3C4COC(CC41)C1(C(=O)N(C)c4ccccc41)C32 (stereo not given),–,37.7,–,59.6,–,> 100,–,61.9,–,66.5,–,51.8,–,> 100,–,85,–,> 100,–,31.4
O=[N+]([O-])c1ccc(/C=C/c2nc3ccc(Cl)cc3[nH]2)cc1,19.4,66.6,28.7,> 100,37.8,> 100,> 100,> 100,28.2,> 100,> 100,> 100,> 100,> 100,35.7,> 100,39.9,> 100,30,> 100
N#CC(C#N)=CNCCN1CCN(C=C(C#N)C#N)CC1,–,> 100,–,> 100,–,> 100,–,> 100,–,> 100,–,> 100,–,> 100,–,> 100,–,> 100,–,> 100
COc1ccc(-c2coc3cc(O)ccc3c2=O)cc1,–,> 100,–,> 100,–,> 100,–,> 100,–,> 100,–,> 100,–,> 100,–,> 100,–,> 100,–,> 100
COc1cc2c3c(n(CCCN4CCNCC4)c(=O)c2cc1OC)-c1cc2c(cc1C3=O)OCO2,0.0439,1.02,0.0613,6.32,0.0393,0.922,1.09,7.31,0.762,2.66,7.08,15.5,3.35,24.8,2.03,20.7,0.0851,1.93,1.19,10.6
COc1ccc(-c2cc(/C=C3\C(=O)Nc4cc(Cl)ccc43)[nH]n2)cc1,3.52,21.4,2.57,> 100,5.49,> 100,2.7,> 100,7.74,> 100,26.3,> 100,4.23,> 100,4.76,> 100,2.68,12.2,3.49,> 100
O=C(/C=C/C12c3ccccc3C(c3ccccc31)C1C(=O)N(c3ccc(Cl)cc3)C(=O)C12)c1ccccn1 (stereo not given),0.283,0.747,0.3,0.994,0.288,0.989,0.3,1.19,1.46,4.87,0.39,1.96,1.98,> 100,0.248,0.643,0.379,2.03,0.178,0.399
COC1=CC(c2ccc[nH]2)=N/C1=C\c1[nH]c(C)c(C(=O)CCC(=O)Oc2ccc3c(c2)CCC2C3CC[C@]3(C)[C@@H](O)CC[C@@H]23)c1C (stereo not given in full),3.54,> 100,0.816,5.14,2.47,9.18,2.1,4.6,7.68,> 100,> 100,> 100,5.56,> 100,4.47,> 100,4,20.4,1.59,3.73
Cc1ccc(C)c2c1C(=O)N(c1ccc(F)cc1F)C2=O,> 100,> 100,> 100,> 100,> 100,> 100,> 100,> 100,> 100,> 100,> 100,> 100,> 100,> 100,> 100,> 100,> 100,> 100,> 100,> 100
Cc1ccc(-c2nc3nc(-c4ccc(F)cc4)nc(N4CCNCC4)c3o2)cc1,2.6,6.45,1.76,3.61,2.1,4.74,1.92,3.79,2.07,6.38,18.4,37.6,18.7,34.4,1.68,3.16,18.3,33.9,1.46,2.79
COC(=O)C1=COC2OC3C(C(C)O)C(=O)OC34C=CC1C24 (stereo not given),–,> 100,–,> 100,–,> 100,–,> 100,–,> 100,–,> 100,–,> 100,–,> 100,–,> 100,–,> 100
NC(=O)c1cccc2c(N[C@H](CN3CCC3)c3ccc(Cl)c(C(F)(F)F)c3)ncnc12,2.24,16.2,3.43,16.3,1.47,12.4,1.47,3.69,0.156,3.34,1.22,5.27,0.493,4.3,0.0989,2.63,0.293,2.88,0.306,4.91
